In the NIST ThermoML archive (doi:10.1021/je301014d):
Numbers after ± are expanded uncertainties.

Experiments:
[1] = Crystal; DTA
[2] = Molar enthalpy of transition or fusion; conditions: Crystal; DSC

Normal melting temperature [1] [°C]	Molar enthalpy of transition or fusion [2] [kcal/mol]	Structure (SMILES)
97.23 ± 1.1	3.87 ± 0.0956	C[C@H]1OC(=O)[C@@H](C)OC1=O [(3R,6R)-3,6-dimethyl-1,4-dioxane-2,5-dione]
97.82 ± 1.1	3.87 ± 0.0956	C[C@@H]1OC(=O)[C@H](C)OC1=O [(3S,6S)-3,6-dimethyl-1,4-dioxane-2,5-dione]
